Data as given in patent US20100144755A1 (Glaxo Group Limited, priority 2006, published 2010).
Counter-ions that a name gives are not always drawn.

test system: TNF-stimulated IL8 production by human neutrophils; test: TNF-stimulated IL-8 production from human neutrophils; type: cell-based; settings: Neutrophil, TNF 100 ng/ml, about 20 hrs, bounds reflect the top concentration screened, for 202(c) and 120 a range over multiple runs with ends given as 'greater than';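 further: IL-8 in cell-free supernatant quantified by sandwich ELISA, inhibition calculated against a compound-free control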
Protocol: TNF-Stimulated IL-8 Production from Human Neutrophils
The effect of test compounds on TNF-stimulated IL8 production by human neutrophils is measured as follows. Neutrophils are prepared from blood obtained from consenting donors, using standard methods. Blood is collected in heparinized syringes and layered over histopaque (30 ml/20 ml). Following centrifugation, the red cell pellet is resuspended in PBS and purified over a dextran gradient. […] Cells are added (0.5-1 ml) to 48 well plates already containing compound at 1000× final concentration in neat DMSO or 10% DMSO in RPMI1640 with 10% FBS. TNF (final concentration 100 ng/ml) is used as the stimulus. Cells incubated for approximately 20 hrs at 37° C., 5% CO2. Levels of IL-8 in the cell free supernatant are determined by sandwich ELISA, and inhibition relative to a control with DMPO but no compound is calculated.

Q: With `Cc1ccc(NC(=O)c2ccc(Cl)nc2)cc1-c1nc(NC2CC(C)(C)NC(C)(C)C2)nc2c1ccc(=O)n2-c1c(F)cccc1F` [Example 16, 6-chloro-N-(3-{8-(2,6-difluorophenyl)-7-oxo-2-[(2,2,6,6-tetramethyl-4-piperidinyl)amino]-7,8-dihydropyrido[2,3-d]pyrimidin-4-yl}-4-methylphenyl]-3-pyridinecarboxamide] as the compound, how does the IC50 read?
A: Its IC50 is > 0.1 µM.

Q: How did the IC50 turn out when `CCN(CC)CCCNc1nc(-c2cccc(C(=O)NCC#N)c2C)c2ccc(=O)n(-c3c(F)cccc3F)c2n1` [Example 156, N-(cyanomethyl)-3-[2-{[3-(diethylamino)propyl]amino}-8-(2,6-difluorophenyl)-7-oxo-7,8-dihydropyrido[2,3-d]pyrimidin-4-yl]-2-methylbenzamide] was run?
A: Its IC50 is > 0.1 µM.

Q: Which IC50 does the source give for `Cc1ccc(NC(=O)c2cc[nH]n2)cc1-c1nc(NC(CO)CO)nc2c1ccc(=O)n2-c1c(F)cccc1F` [Example 53, N-[3-8-(2,6-difluorophenyl-2-{[2-hydroxy-1-(hydroxymethyl)ethyl]amino}-7-oxo-7,8-dihydropyrido[2,3-d]pyrimidin-4-yl)-4-methylphenyl]-1H-pyrazole-3-carboxamide trifluoroacetate] here?
A: Its IC50 is > 0.1 µM.

Q: With `Cc1ccc(NC(=O)c2cn(C)cn2)cc1-c1nc(NC(CO)CO)nc2c1ccc(=O)n2-c1c(F)cccc1F` [Example 51, N-[3-(2,6-difluorophenyl)-2-{[2-hydroxy-1-(hydroxymethyl)ethyl]amino}-7-oxo-7,8-dihydropyrido[2,3-d]pyrimidin-4-yl)-4-methylphenyl]-1-methyl-1H-imidazole-4-carboxamide trifluoroacetate] as the compound, how does the IC50 read?
A: The IC50 was > 0.1 µM.

Q: With `Cc1ccc(C(=O)NCC(C)(C)C)cc1-c1nc(N2CCC(N3CCC(C)CC3)CC2)nc2c1ccc(=O)n2-c1c(F)cccc1F` [Example 171, 3-[8-(2,6-difluorophenyl)-2-(4-methyl-1,4′-bipiperidin-1′-yl)-7-oxo-7,8-dihydropyrido[2,3-d]pyrimidin-4-yl]-N-(2,2-dimethylpropyl)-4-methylbenzamide] as the compound, how does the IC50 read?
A: The IC50 was > 0.1 µM.

Q: Which IC50 does the source give for `CCN(CC)CCCNc1nc(-c2cccc(C(=O)O)c2)c2ccc(=O)n(-c3c(F)cccc3F)c2n1` [193(a), 3-[2-{[3-(diethylamino)propyl]amino}-8-(2,6-difluorophenyl)-7-oxo-7,8-dihydropyrido[2,3-d]pyrimidin-4-yl]benzoic acid] here?
A: Its IC50 is > 0.1 µM.

Q: How did the IC50 turn out when `Cc1ccc(NC(=O)c2ccc(Cl)nc2)cc1-c1nc(N2CCC(N)CC2)nc2c1ccc(=O)n2-c1c(F)cccc1F` [Example 15, N-{3-[2-(4-amino-1-piperidinyl)-8-(2,6-difluorophenyl)-7-oxo-7,8-dihydropyrido[2,3-d]pyrimidin-4-yl]-4-methylphenyl}-6-chloro-3-pyridinecarboxamide] was run?
A: Its IC50 is > 0.1 µM.

Q: For `Cc1ccc(NC(=O)c2cccs2)cc1-c1nc(NCc2ncc[nH]2)nc2c1ccc(=O)n2-c1c(F)cccc1F` [Example 10, N-(3-{8-(2,6-difluorophenyl)-2-[(1H-imidazol-2-ylmethyl)amino]-7-oxo-7,8-dihydropyrido[2,3-d]pyrimidin-4-yl}-4-methylphenyl)-2-thiophenecarboxamide], which IC50 is on record?
A: The IC50 was > 0.1 µM.

Q: With `CCN(CC)CCCNc1nc(-c2ccc(C(=O)NC(C)C)cc2)c2ccc(=O)n(-c3c(F)cccc3F)c2n1` [Example 189, 4-[2-{[3-(diethylamino)propyl]amino}-8-(2,6-difluorophenyl)-7-oxo-7,8-dihydropyrido[2,3-d]pyrimidin-4-yl]-N-(1-methylethyl)benzamide] as the compound, how does the IC50 read?
A: Its IC50 is > 0.1 µM.

Q: Which IC50 does the source give for `CCCNC(=O)c1ccc(-c2nc(NCCCN(CC)CC)nc3c2ccc(=O)n3-c2c(F)cccc2F)cc1` [188(b), 4-[2-{[3-(diethylamino)propyl]amino}-8-(2,6-difluorophenyl)-7-oxo-7,8-dihydropyrido[2,3-d]pyrimidin-4-yl]-N-propylbenzamide] here?
A: The IC50 was > 0.1 µM.

Q: For `CCN(CC)CCCNc1nc(-c2cccc(C(=O)Nc3ccc(F)cc3)c2C)c2ccc(=O)n(-c3c(F)cccc3F)c2n1` [Example 152, 3-[2-{[3-(diethylamino)propyl]amino}-8-(2,6-difluorophenyl)-7-oxo-7,8-dihydropyrido[2,3-d]pyrimidin-4-yl]-N-(4-fluorophenyl)-2-methylbenzamide], which IC50 is on record?
A: Its IC50 is > 0.1 µM.

Q: With `CNCCNc1nc(-c2cc(NC(=O)c3cccs3)ccc2C)c2ccc(=O)n(-c3c(F)cccc3F)c2n1` [Example 11, N-[3-(8-(2,6-difluorophenyl)-2-{[2-(methylamino)ethyl]amino}-7-oxo-7,8-dihydropyrido[2,3-d]pyrimidin-4-yl)-4-methylphenyl]-2-thiophenecarboxamide] as the compound, how does the IC50 read?
A: Its IC50 is > 0.1 µM.

Q: `Cc1ccc(N)cc1-c1nc(NC2CC(C)(C)NC(C)(C)C2)nc2c1ccc(=O)n2-c1c(F)cccc1F` [Example 110, 4-(5-amino-2-methylphenyl)-8-(2,6-difluorophenyl)-2-[(2,2,6,6-tetramethyl-4-piperidinyl)amino]pyrido[2,3-d]pyrimidin-7(8H)-one] was tested. Which IC50 did it give?
A: The IC50 was > 0.1 µM.

Q: With `CCN(CC)CCCNc1nc(-c2cccc(C(=O)NCC(C)C)c2C)c2ccc(=O)n(-c3c(F)cccc3F)c2n1` [Example 154, 3-[2-{[3-(diethylamino)propyl]amino}-8-(2,6-difluorophenyl)-7-oxo-7,8-dihydropyrido[2,3-d]pyrimidin-4-yl]-2-methyl-N-(2-methylpropyl)benzamide] as the compound, how does the IC50 read?
A: The IC50 was > 0.1 µM.

Q: For `Cc1ccc(NC(=O)c2ccc(Cl)nc2)cc1-c1nc(NC2CCNCC2)nc2c1ccc(=O)n2-c1c(F)cccc1F` [14(c), 6-chloro-N-{3-[8-(2,6-difluorophenyl)-7-oxo-2-(4-piperidinylamino)-7,8-dihydropyrido[2,3-d]pyrimidin-4-yl]-4-methylphenyl}-3-pyridinecarboxamide], which IC50 is on record?
A: The IC50 was > 0.1 µM.

Q: How did the IC50 turn out when `CCCNC(=O)c1cccc(-c2nc(NCCCN(CC)CC)nc3c2ccc(=O)n3-c2c(F)cccc2F)c1C` [Example 153, 3-[2-{[3-(diethylamino)propyl]amino}-8-(2,6-difluorophenyl)-7-oxo-7,8-dihydropyrido[2,3-d]pyrimidin-4-yl]-2-methyl-N-propylbenzamide] was run?
A: Its IC50 is > 0.1 µM.

Q: `CCN(CC)CCCNc1nc(-c2cccc(C(=O)NC3CC3)c2C)c2ccc(=O)n(-c3c(F)cccc3F)c2n1` [Example 155, N-cyclopropyl-3-[2-{[3-(diethylamino)propyl]amino}-8-(2,6-difluorophenyl)-7-oxo-7,8-dihydropyrido[2,3-d]pyrimidin-4-yl]-2-methylbenzamide] was tested. Which IC50 did it give?
A: Its IC50 is > 0.1 µM.

Q: How did the IC50 turn out when `Cc1ccc(C(=O)O)cc1-c1nc(N2CCC(N3CCC(C)CC3)CC2)nc2c1ccc(=O)n2-c1c(F)cccc1F` [163(b), 3-[8-(2,6-difluorophenyl)-2-(4-methyl-1,4′-bipiperidin-1′-yl)-7-oxo-7,8-dihydropyrido[2,3-d]pyrimidin-4-yl]-4-methylbenzoic acid] was run?
A: The IC50 was > 0.1 µM.

Q: `CCN(CC)CCCNc1nc(-c2cc(C(=O)O)ccc2C)c2ccc(=O)n(-c3c(F)cccc3F)c2n1` [118(a), 3-[2-{[3-(diethylamino)propyl]amino}-8-(2,6-difluorophenyl)-7-oxo-7,8-dihydropyrido[2,3-d]pyrimidin-4-yl]-4-methylbenzoic acid] was tested. Which IC50 did it give?
A: Its IC50 is > 0.1 µM.
